Measured values from US10988523B2, “Modified lipidated Relaxin B chain peptides and their therapeutic use” (Sanofi, priority 2018, dated 2021).
In brackets after ≈: the same amount, converted by molar mass. Read-outs that look alike come from different tables or passages of the source. *1 amine or outer side, *2 acyl side, *3 side chain or, on linkers, in order; H or OH if unused. Where a SMILES comes first, the peptide text is derived from it. Side-chain parts run from the residue outwards. [ ]: non-standard residue; d: D form. The star is where a group is joined. γGlu = O=C(O)[C@H](CCC(=O)[*:2])N[*:1]; Palmitoyl = CCCCCCCCCCCCCCCC(=O)*; αMeK = C[C@](N)(CCCCN)C(=O)O; Nle = CCCC[C@H](N)C(=O)O; AEEA = NCCOCCOCC(=O)O; Aib = CC(C)(N)C(=O)O

Tests used:
[1] = Stability testing of peptides in rat plasma or blood; assay type: in vitro ADME; conditions: 37° C.; for Rat plasma stability % remaining T = 0: rat plasma or blood, T = 0 (reference), 5 μM
How it was run: (§1)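 Peptide at 5 µM final was incubated at 37 °C in heparinized rat or human plasma or blood, sampled up to 4 h, and extracted with acetonitrile/1% TFA. HPLC peak areas relative to t0 give % remaining peptide.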

[2] = Stability testing of peptides in human plasma or blood; assay type: in vitro ADME; conditions: 37° C.; for Human Plasma stability % remaining T = 0: human plasma or blood, T = 0 (reference), 5 μM
How it was run: as §1

[3] = Solubility testing of peptides in buffer; assay type: physicochemical
RXFP1 = target: T1, RXFP1 (Homo sapiens, UniProt Q9HBX9); assay: OVCAR5 cAMP assay (HTRF), RXFP1 agonist activity; assay type: cell-based; conditions: for Emax: OVCAR-5, maximal cAMP relative to H2-relaxin maximum (100%), read-out: EMax, OVCAR 5 cells (cAMP)
T1 construct: OVCAR5 cells expressing endogenous RXFP1; endogenous in cells; host or cells: OVCAR5 cells
T1 sequence (Q9HBX9 1-757): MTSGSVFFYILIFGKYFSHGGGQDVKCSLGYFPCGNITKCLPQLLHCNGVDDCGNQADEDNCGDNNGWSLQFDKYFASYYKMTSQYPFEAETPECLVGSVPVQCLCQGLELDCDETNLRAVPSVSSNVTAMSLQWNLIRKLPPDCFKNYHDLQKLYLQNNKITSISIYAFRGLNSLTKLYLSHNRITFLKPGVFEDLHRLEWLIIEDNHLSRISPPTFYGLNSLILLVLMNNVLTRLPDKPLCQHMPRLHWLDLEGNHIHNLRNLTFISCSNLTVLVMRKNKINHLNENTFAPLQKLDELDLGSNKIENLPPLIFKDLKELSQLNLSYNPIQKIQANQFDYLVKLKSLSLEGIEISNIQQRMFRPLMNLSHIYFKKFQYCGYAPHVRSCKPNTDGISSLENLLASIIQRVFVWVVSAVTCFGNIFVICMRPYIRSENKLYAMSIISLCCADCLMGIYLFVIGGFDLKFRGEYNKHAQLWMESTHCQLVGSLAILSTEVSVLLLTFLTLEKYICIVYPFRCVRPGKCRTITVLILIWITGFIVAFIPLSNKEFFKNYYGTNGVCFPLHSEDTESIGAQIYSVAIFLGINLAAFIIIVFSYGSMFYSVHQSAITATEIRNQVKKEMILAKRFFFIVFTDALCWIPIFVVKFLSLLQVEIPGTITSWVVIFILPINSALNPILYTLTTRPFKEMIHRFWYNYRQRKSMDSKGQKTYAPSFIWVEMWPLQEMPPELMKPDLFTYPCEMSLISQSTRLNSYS
How it was run: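 cAMP accumulation readout: after 1 mM IBMX for 40 min, endogenous-RXFP1 OVCAR5 cells got rising peptide concentrations without FCS, 30 min, 37° C, then lysis with HTRF cAMP reagents. Nonlinear regression gave EC50; Emax expressed relative to H2-relaxin maximum, same occasion.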

Row | Rat plasma stability % remaining T = 0 [1] | remaining at 1 h, 5 µM ([1]; whole blood, rat blood, read-out: Rat stability in blood % remaining 1 h) | remaining at 4 h, 5 µM ([1]; whole blood, rat blood, read-out: Rat stability in blood % remaining 4 h) | Human Plasma stability % remaining T = 0 [2] | remaining at 1 h, 5 µM ([2]; whole blood, human blood, read-out: Human stability in blood % remaining 1 h) | remaining at 4 h, 5 µM ([2]; whole blood, human blood, read-out: Human stability in blood % remaining 4 h) | solubility ([3]; acetate buffer 50 mM pH 4.5, target solubility 10.0 mg/ml, read-out: Solubility Acetate buffer pH 4.5) | solubility ([3]; phosphate buffer 50 mM pH 7.4, target solubility 10.0 mg/ml, read-out: Solubility phosphate buffer pH 7.4) | EC50 (RXFP1; OVCAR5 cells, cAMP HTRF, read-out: EC50 (nM), OVCAR 5 cells (cAMP)) | Emax (RXFP1) | remaining at 1 h, 5 µM ([1]; rat plasma, read-out: Rat plasma stability % remaining 1 h) | remaining at 4 h, 5 µM ([1]; rat plasma, read-out: Rat plasma stability % remaining 4 h) | remaining at 1 h, 5 µM ([2]; human plasma, read-out: Human Plasma stability % remaining 1 h) | remaining at 4 h, 5 µM ([2]; human plasma, read-out: Human Plasma stability % remaining 4 h) | solubility ([3]; acetate buffer, pH 4.5, read-out: Solubility Acetate buffer pH 4.5) | solubility ([3]; phosphate buffer, pH 7.4, read-out: Solubility phosphate buffer pH 7.4) | SMILES
1 | 100% | 86% | 90% | 100% | 34% | 78% | 1500 µg/mL (≈ 351 µM) | > 10000 µg/mL | 0.07 nM | 92% | – | – | – | – | – | – | CCCCCCCCCCCCCCCC(=O)N[C@@H](CCC(=O)N[C@@H](CCC(=O)N[C@@H](CCC(=O)N[C@@H](CCC(=O)NCCCC[C@H](NC(=O)COCCOCCNC(=O)COCCOCCNC(=O)COCCOCCNC(=O)COCCOCCNC(=O)[C@H](CCCCNC(C)=O)NC(=O)[C@H](C)NC(=O)[C@H](CCCNC(=N)N)NC(=O)[C@](C)(CCCCN)NC(=O)[C@H](CO)NC(=O)[C@H](Cc1ccccc1)NC(=O)[C@@H](NC(=O)[C@H](CO)NC(=O)[C@H](CCCC)NC(=O)CNC(=O)[C@H](CCC(=O)O)NC(=O)C(C)(C)NC(=O)C(C)(C)NC(=O)[C@@H](NC(=O)[C@H](CCCCNC(C)=O)NC(=O)[C@H](C)NC(=O)[C@H](CCCNC(=N)N)NC(=O)[C@@H](NC(=O)[C@H](CCCCN)NC(=O)[C@H](CCC(=O)O)NC(=O)[C@H](CCCNC(=N)N)NC(=O)CNC(=O)[C@H](CCC(=O)O)NC(=O)[C@H](CC(C)C)NC(C)=O)C(C)C)[C@@H](C)CC)[C@@H](C)O)C(N)=O)C(=O)O)C(=O)O)C(=O)O)C(=O)O [compound 150] (Ac-LEGREKVRAK(Ac)I[Aib][Aib]EG[Nle]STFS[αMeK]RAK(Ac)[AEEA][AEEA][AEEA][AEEA]K([γGlu-γGlu-γGlu-γGlu-Palmitoyl])-NH2)
2 | 100% | – | – | 100% | – | – | – | – | – | 83% | 96% | 101% | 100% | 11% | 5700 µg/mL (≈ 1550 µM) | 5700 µg/mL (≈ 1550 µM) | CCCCCCCCCCCCCCCC(=O)N[C@@H](CCC(=O)N[C@@H](CCC(=O)N[C@@H](CCC(=O)NCCOCCOCC(=O)NCCOCCOCC(=O)NCCCC[C@H](NC(=O)[C@H](CCCCN)NC(=O)[C@H](CCCNC(=N)N)NC(=O)C(C)(C)NC(=O)[C@H](CO)NC(=O)[C@H](Cc1c[nH]c2ccccc12)NC(=O)[C@@H](NC(=O)[C@H](CO)NC(=O)[C@H](CCCC)NC(=O)CNC(=O)[C@H](CCC(=O)O)NC(=O)C(C)(C)NC(=O)C(C)(C)NC(=O)[C@@H](NC(=O)[C@H](CCC(N)=O)NC(=O)[C@H](C)NC(=O)[C@H](CCCNC(=N)N)NC(=O)[C@@H](NC(=O)[C@H](CCCCN)NC(=O)[C@H](CCC(=O)O)NC(=O)[C@H](CCCNC(=N)N)NC(=O)CNC(=O)[C@H](CCC(=O)O)NC(=O)[C@H](CC(C)C)NC(C)=O)C(C)C)[C@@H](C)CC)[C@@H](C)O)C(N)=O)C(=O)O)C(=O)O)C(=O)O [compound 58] (Ac-LEGREKVRAQI[Aib][Aib]EG[Nle]STWS[Aib]RKK([AEEA-AEEA-γGlu-γGlu-γGlu-Palmitoyl])-NH2)
